Test results as given in US8133691B2, “Stable quantitation and detection of immune response levels with non-zero background peptides” (The Henry M. Jackson Foundation for the Advancement of …, priority 2005, dated 2012).

What was measured:
[1] = tested on: IFN-gamma-secreting cells (PBMC); experiment: Ex vivo ELISPOT, PBMC stimulated with artificial APC DYNAL beads + [MHC + peptide]; type: cell-based, human
[2] = tested on: IFN-gamma-secreting cells (PBMC); experiment: Ex vivo ELISPOT, PBMC stimulated with plain (non-complexed) peptide; type: cell-based, human; details: PBMC 3 × 10^5 cells/well
Description: The term “ELISPOT” is used herein, for purposes of the specification and claims, to mean an adaptation of ELISA in which cells are placed over antibodies or antigens attached to a plastic surface. The antigen or antibody traps the cells' secreted products, which can then be detected by using an enzyme-coupled antibody that cleaves a preferably colorless substrate to make a localized colored spot.
In another embodiment, experiments were conducted with the E75 or Telomerase peptides+HLA beads in ex vivo ELISPOT assays run in the absence of stimulation (i.e. culture medium) or with plain or non-complexed E75 or Telomerase peptides. […] These responses have been reproduced in a number of assays using peripheral blood samples from prostate and breast cancer patients. The beads need not be made by DYNAL Biotech. Another biochemical manufacturer—such as BD Biosciences, may produce them.
In another embodiment, experiments were conducted with the E75 or Telomerase peptides+HLA beads in ex vivo ELISPOT assays run with negative control peptides.

Q: “E37-ve: DYNAL beads + MHC + E37 negative control peptide (RIAWARTEL) [Peptide E37-ve]” was tested. Which ELISPOT spots ([1]; 1 × 10^5 beads/well, PBMC 1 × 10^5 cells/well) did it give?
A: The ELISPOT spots was 0 spots.

Q: What about the ELISPOT spots ([1]; 1 × 10^5 beads/well, PBMC 2 × 10^5 cells/well) of the same substance?
A: Its ELISPOT spots is 6 spots.

Q: What about the ELISPOT spots ([1]; 1 × 10^5 beads/well, PBMC 3 × 10^5 cells/well) of the same substance?
A: Its ELISPOT spots is 20 spots.

Q: And the ELISPOT spots ([1]; 5 × 10^5 beads/well, PBMC 1 × 10^5 cells/well)?
A: The ELISPOT spots was 0 spots.

Q: And the ELISPOT spots ([1]; 5 × 10^5 beads/well, PBMC 2 × 10^5 cells/well)?
A: Its ELISPOT spots is 3 spots.

Q: What about the ELISPOT spots ([1]; 5 × 10^5 beads/well, PBMC 3 × 10^5 cells/well) of the same substance?
A: The ELISPOT spots was 8 spots.

Q: Which ELISPOT spots [2] does the source give for “NH2-RIAWARTEL-COOH (H-RIAWARTEL-OH) [Peptide E37, negative control peptide]” here?
A: Its ELISPOT spots is 1 spots.
